The values that follow come from patent publication US9586963B2 (GENFIT, priority 2011, dated 2017).

The target in the experiment is T1, Rev-Erb alpha (Homo sapiens, UniProt P20393).
T1 sequence (P20393 284-614 limits assumed): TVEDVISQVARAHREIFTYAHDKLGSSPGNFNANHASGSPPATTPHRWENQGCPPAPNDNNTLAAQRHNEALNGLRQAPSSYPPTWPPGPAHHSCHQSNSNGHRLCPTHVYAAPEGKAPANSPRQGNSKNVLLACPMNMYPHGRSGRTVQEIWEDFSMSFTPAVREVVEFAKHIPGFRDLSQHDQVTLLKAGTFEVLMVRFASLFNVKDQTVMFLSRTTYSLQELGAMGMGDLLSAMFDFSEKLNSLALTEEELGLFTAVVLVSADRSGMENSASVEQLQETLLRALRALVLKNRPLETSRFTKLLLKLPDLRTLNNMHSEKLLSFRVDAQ
Briefly: M2H (mammalian two-hybrid) cellular activation assay of Rev-Erb alpha. The class given is cell-based. Conditions: M2H assay, HEK293 cells; for EC50: Gal4-Rev-Erb alpha / VP16-NCoR, luciferase reporter; for Emax: relative to DMSO, at the tested dose, read-out: TOP activation. The procedure: In this system, Rev-Erb alpha or Rev-Erb beta is expressed as a fusion to the Gal4 DNA-binding domain and the cofactor NCoR is expressed as a fusion to the activation domain of the Herpes Simplex Virus tegument protein VP16. These fusion proteins were included in plasmids at a concentration of 1 μg/μL. The pBS-SK+ vector was added to the preparation to adjust the DNA quantity to a fixed value for each condition.
The transfection mix (Jet-PEI protocol, Polyplus transfection) comprised: • 3 mL of Jet PEI Mix (180 μL Jet-Pei and NaCl at 150 mM) and • 3 mL of the DNA Mix or of the DNA Mix control (wherein the Gal4-Rev-Erb alpha plasmid was replaced by a pGal4phi plasmid).
DNA Mix comprised 1.2 mL of DNA and 1.8 mL of NaCl at 150 mM with, in a T225 flask: • 90 ng of Gal4-Rev-Erb alpha, or 90 ng of Gal4-Rev-Erb beta, • 4500 ng of VP16-NCoR, • 27000 ng of Gal4-RE and • 13410 ng of pBS-SK+. Cells
HEK293 cells were cultured in DMEM (Invitrogen 41965) comprising 10% FBS, P/S, 1% glutamine, 1% pyruvate (Invitrogen 11360) and 1% amino acids (Invitrogen 11140). Cells were then batch co-transfected with plasmid vectors (described in the table above) using as Jet-PEI as reagent (Polyplus) following the protocol specified below.
The 6 mL-transfection mix was transferred in a T225 flask. HEK293 cells were then added at a concentration of 12 Millions of cells for 54 mL of medium (DMEM comprising 10% FBS and 1% P/S). Cells incubated over-night at 37° C. and under 5% CO2.
This cell-based assay is performed using 384-well Greiner white plates (Reference 781080). After the incubation, cells were rinsed with PBS, trypsinized, centrifuged and resuspended in free-serum DMEM without phenol red (Invitrogen 31053). Cells were counted and adjusted to 0.5 Million per mL and plated at a concentration of 10,000 cells in 20 μL per well. They were incubated a minimum of 4 hours at 37° C. under 5% CO2. Cells were treated with 20 μL of the compound to analyze (concentration of 2× diluted in DMEM without FBS containing a maximum of 1% DMSO) and incubated over-night (18 hours, 37° C. and 5% CO2). Each compound has been tested at 6 different concentrations to depict a dose-effect allowing the measure of biochemical parameters such as EC50 and TOP activation (%).
Cells were incubated 30 minutes with 40 μL/well of Steady Glow (Promega) and luminescence was read with TECAN Genios Pro (100 ms/w). Four experiments were carried out for each compound.
Each compound has been tested at 6 different concentrations to depict a dose-effect allowing the measure of biochemical parameters such as EC50 and TOP activation (%).
The mammalian two-hybrid system (M2H) assay consists herein in studying the ability of compounds according to the invention to activate Rev-Erbalpha in cells and thus modulate the interaction with its corepressor. The interaction of the two proteins is assessed with the help of the Luciferase reporter gene. HEK293 cells were transfected with two gene constructions: Gal4-RE VP16-NCoR and Gal4-Rev-Erbalpha or with Gal4-RE, sVP16-NCoR and Gal4-Rev-Erb beta.
The ability of compounds according to the invention of activating Rev-Erbalpha alpha or Rev-Erb beta was assessed in the described cell-based assay. EC50 and TOP activation (%) were measured.

Each structure is given as a SMILES string.

Broadly, the EC50 is the concentration that produces a half-maximal response. Read a low EC50 as a more potent agent. `CN(Cc1ccccc1)Cc1ccc(Oc2ccc3nnc(Cl)n3n2)c(-c2ccccc2)c1` returned an EC50 of 100 to 1000 nM.
`CN(CCc1ccccc1)Cc1ccc(Oc2ccc3nnc(Cl)n3n2)c(-c2ccccc2)c1` displayed an EC50 of 1000 to 6000 nM.
For the compound `CN(Cc1ccc(Oc2ccc3nnc(Cl)n3n2)c(-c2ccccc2)c1)C1CCCCC1`, the EC50 was in the range of 1000 to 6000 nM.
Still for that read-out and setting: the same measure for `FC(F)(F)c1cccc(Oc2ccc3nnc(Cl)n3n2)c1-c1ccccc1`: under 100 nM; for `Fc1cccc(-c2cccc(Oc3ccc4nnc(Cl)n4n3)c2)c1` [Cpd.3-6, 6-(3′-fluoro-biphenyl-3-yloxy)-3-chloro-[1,2,4]triazolo[4,3-b]pyridazine]: 100 to 1000 nM; for `COc1ccc(-c2cccc(Oc3ccc4nnc(Cl)n4n3)c2)cc1` [Cpd.3-7, 6-(4′-methoxy-biphenyl-3-yloxy)-3-chloro-[1,2,4]triazolo[4,3-b]pyridazine]: 1000 to 6000 nM.
On to `FC(F)(F)c1nnc2ccc(Oc3ccccc3-c3ccccc3)nn12` [Cpd.4-2, 6-(biphenyl-2-yloxy)-3-(trifluoromethyl)-[1,2,4]triazolo[4,3-b]pyridazine], for which the EC50 is 100 to 1000 nM.
Consider `Fc1ccc(-c2ccccc2Oc2ccc3nnc(Cl)n3n2)c(F)c1` [Cpd.4-13, 6-(2′,4′-difluoro-biphenyl-2-yloxy)-3-chloro-[1,2,4]triazolo[4,3-b]pyridazine], for which the EC50 was in the range of 100 to 1000 nM.
The same measure, in the same setting: the same measure for `COc1cccc(-c2ccccc2Oc2ccc3nnc(Cl)n3n2)c1` [Cpd.4-16, 6-(3′-methoxy-biphenyl-2-yloxy)-3-chloro-[1,2,4]triazolo[4,3-b]pyridazine]: 100 to 1000 nM; for `FC(F)(F)c1cccc(-c2ccccc2Oc2ccc3nnc(Cl)n3n2)c1` [Cpd.4-28, 6-(3′-trifluoromethyl-biphenyl-2-yloxy)-3-chloro-[1,2,4]triazolo[4,3-b]pyridazine]: 100 to 1000 nM.
The same measure, in the same setting: the same measure for `Clc1cccc(-c2ccccc2Oc2ccc3nnc(Cl)n3n2)c1` [Cpd.4-29, 6-(3′-chloro-biphenyl-2-yloxy)-3-chloro-[1,2,4]triazolo[4,3-b]pyridazine]: 100 to 1000 nM; for `Nc1ccc(Oc2ccc3nnc(Cl)n3n2)c(-c2ccccc2)c1` [Cpd.4-36, 6-(5-amino-biphenyl-2-yloxy)-3-chloro-[1,2,4]triazolo[4,3-b]pyridazine]: 1000 to 6000 nM.
Regarding `Oc1cccc(-c2ccc(C(F)(F)F)cc2Oc2ccc3nnc(Cl)n3n2)c1` [Cpd.4-37, 6-(3′-hydroxy-4-trifluoromethyl-biphenyl-2-yloxy)-3-chloro-[1,2,4]triazolo[4,3-b]pyridazine], the EC50 was in the range of 100 to 1000 nM.
`FC(F)(F)c1ccc(Oc2ccc3nnc(Cl)n3n2)c(-c2ccccc2)c1` [Cpd.4-40, 6-(5-trifluoromethyl-biphenyl-2-yloxy)-3-chloro-[1,2,4]triazolo[4,3-b]pyridazine]: the concentration for a half-maximal effect (EC50) lay within 100 to 1000 nM.
On the same count and under the same terms, the same measure for `O=C(c1ccccc1)c1cc(Cl)ccc1Oc1ccc2nnc(Cl)n2n1` [Cpd.4-42, (5-chloro-2-(3-chloro-[1,2,4]triazolo[4,3-b]pyridazin-6-yloxy)phenyl)(phenyl)methanone]: 1000 to 6000 nM; for `COC(=O)c1ccc(-c2ccccc2)c(Oc2ccc3nnc(Cl)n3n2)c1` [Cpd.4-43, 3-chloro-6-(4-methyloxycarbonyl-biphenyl-2-yloxy)-[1,2,4]triazolo[4,3-b]pyridazine]: under 100 nM.
The same measure, in the same setting: the same measure for `Nc1ccc(-c2ccccc2)c(Oc2ccc3nnc(Cl)n3n2)c1` [Cpd.4-48, 3-chloro-6-(4-amino-biphenyl-2-yloxy)-[1,2,4]triazolo[4,3-b]pyridazine]: 1000 to 6000 nM; for `CC(=O)Nc1ccc(-c2ccccc2)c(Oc2ccc3nnc(Cl)n3n2)c1` [Cpd.4-49, 3-chloro-6-(4-acetamido-biphenyl-2-yloxy)-[1,2,4]triazolo[4,3-b]pyridazine]: 1000 to 6000 nM.
The same measure, in the same setting: as for `CNc1ccc(-c2ccccc2)c(Oc2ccc3nnc(Cl)n3n2)c1` [Cpd.4-52, 3-chloro-6-(4-N-methylamino-biphenyl-2-yloxy)-[1,2,4]triazolo[4,3-b]pyridazine], the figure is 100 to 1000 nM.
In turn, `CCCCN(CCCC)c1ccc(Oc2ccc3nnc(Cl)n3n2)c(-c2ccccc2)c1` [Cpd.4-57, 3-chloro-6-(5-dibutylamino-biphenyl-2-yloxy)-[1,2,4]triazolo[4,3-b]pyridazine] displayed an EC50 of 100 to 1000 nM.
On the same count and under the same terms, the same measure for `Fc1cc(Oc2ccc3nnc(C(F)(F)F)n3n2)c(-c2ccccc2)cc1F` [Cpd.4-61, 3-trifluoromethyl-6-(4,5-difluorobiphenyl-2-yloxy)-[1,2,4]triazolo[4,3-b]pyridazine]: 1000 to 6000 nM.
As for `Clc1nnc2ccc(Oc3ccc(CN4CCOCC4)cc3-c3ccccc3)nn12` [Cpd.4-62, 3-chloro-6-(5-morpholinomethyl-biphenyl-2-yloxy)-[1,2,4]triazolo[4,3-b]pyridazine], the EC50 is 1000 to 6000 nM.
For `CN(C)Cc1ccc(Oc2ccc3nnc(Cl)n3n2)c(-c2ccccc2)c1` [Cpd.4-63, 3-chloro-6-(5-N,N-dimethylaminomethyl-biphenyl-2-yloxy)-[1,2,4]triazolo[4,3-b]pyridazine], the EC50 was over 6000 nM and the Emax is over 130%.
For `NCc1ccc(-c2ccccc2)c(Oc2ccc3nnc(Cl)n3n2)c1` [Cpd.4-65, 3-chloro-6-(4-aminomethyl-biphenyl-2-yloxy)-[1,2,4]triazolo[4,3-b]pyridazine], the EC50 is over 6000 nM and the Emax is over 130%.
Compound `OCc1ccc(Oc2ccc3nnc(Cl)n3n2)c(-c2ccccc2)c1` [Cpd.4-66, 3-chloro-6-(5-hydroxymethyl-biphenyl-2-yloxy)-[1,2,4]triazolo[4,3-b]pyridazine] yielded an EC50 of 1000 to 6000 nM.
Still for that read-out and setting: as for `COC(=O)c1ccc(Oc2ccc3nnc(Cl)n3n2)c(-c2ccccc2)c1` [Cpd.4-69, 3-chloro-6-(5-methyloxycarbonyl-biphenyl-2-yloxy)-[1,2,4]triazolo[4,3-b]pyridazine], the figure is 100 to 1000 nM; as for `COc1cccc(-c2ccc(C(F)(F)F)cc2Oc2ccc3nnc(Cl)n3n2)c1` [Cpd.4-71, 3-chloro-6-(3′-methoxy-4-trifluoromethyl-biphenyl-2-yloxy)-[1,2,4]triazolo[4,3-b]pyridazine], 100 to 1000 nM.
Same read-out and setting: as for `NC(=O)c1cccc(-c2ccc(C(F)(F)F)cc2Oc2ccc3nnc(Cl)n3n2)c1` [Cpd.4-72, 3-chloro-6-(4-trifluoromethyl-3′-aminocarbonyl-biphenyl-2-yloxy)-[1,2,4]triazolo[4,3-b]pyridazine], the figure is 1000 to 6000 nM.
Same read-out and setting: as for `COC(=O)c1cccc(-c2cc(F)ccc2Oc2ccc3nnc(Cl)n3n2)c1` [Cpd.4-75], the figure is 1000 to 6000 nM; as for `COc1cccc(-c2cc(F)ccc2Oc2ccc3nnc(Cl)n3n2)c1` [Cpd.4-76, 3-chloro-6-(5-fluoro-3′ methoxy-biphenyl-2-yloxy)-[1,2,4]triazolo[4,3-b]pyridazine], 100 to 1000 nM; as for `Fc1ncccc1-c1ccc(C(F)(F)F)cc1Oc1ccc2nnc(Cl)n2n1` [Cpd.4-78, 3-chloro-6-(2-(2-fluoropyridin-3-yl)-5-(trifluoromethyl)phenoxy)-[1,2,4]triazolo[4,3-b]pyridazine], 100 to 1000 nM.
